Test results published in US10208019B2, “GLP-1 receptor agonists and uses thereof” (Pfizer Inc., priority 2016, dated 2019).
pEC50: −log10 of the molar value.

Target: human GLP-1R (Homo sapiens, UniProt P43220, G168S)
Experiment: CHO GLP-1R Clone H6—Assay 1: HTRF cAMP cell-based functional agonist assay (high GLP-1R density)
Settings: for pEC50: read-out: Assay 1 EC50, CHO GLP-1R Clone H6, cAMP HTRF, geometric mean; for Emax: read-out: Assay 1 Emax (%), CHO GLP-1R Clone H6, relative to saturating concentration of full agonist GLP-1 (1 μM), arithmetic mean
Description: GLP-1R-mediated agonist activity was determined with a cell-based functional assay utilizing an HTRF (Homogeneous Time-Resolved Fluorescence) cAMP detection kit (cAMP HI Range Assay Kit; CisBio cat #62AM6PEJ) that measures cAMP levels in the cell. The method is a competitive immunoassay between native cAMP produced by the cells and exogenous cAMP labeled with the dye d2. The tracer binding is visualized by a mAb anti-cAMP labeled with Cryptate. The specific signal (i.e. energy transfer) is inversely proportional to the concentration of cAMP in either standard or experimental sample.
The human GLP-1R coding sequence (NCBI Reference Sequence NP_002053.3, including naturally-occurring variant Gly168Ser) was subcloned into pcDNA3 (Invitrogen) and a cell line stably expressing the receptor was isolated (designated Clone H6).
Cells were removed from cryopreservation, re-suspended in 40 mL of Dulbecco's Phosphate Buffered Saline (DPBS-Lonza Cat #17-512Q) and centrifuged at 800×g for 5 min at 22° C. The cell pellet was then re-suspended in 10 mL of growth medium [DMEM/F12 1:1 Mixture with HEPES, L-Gln, 500 mL (DMEM/F12 Lonza Cat #12-719F), 10% heat inactivated fetal bovine serum (Gibco Cat #16140-071), 5 mL of 100× Pen-Strep (Gibco Cat #15140-122), 5 mL of 100× L-Glutamine (Gibco Cat #25030-081) and 500 μg/mL Geneticin (G418) (Invitrogen #10131035)]. A 1 mL sample of the cell suspension in growth media was counted on a Becton Dickinson ViCell to determine cell viability and cell count per mL. The remaining cell suspension was then adjusted with growth media to deliver 2000 viable cells per well using a Matrix Combi Multidrop reagent dispenser, and the cells were dispensed into a white 384 well tissue culture treated assay plate (Corning 3570). The assay plate was then incubated for 48 hours at 37° C. in a humidified environment in 5% carbon dioxide.
Varying concentrations of each compound to be tested (in DMSO) were diluted in assay buffer (HBSS with Calcium/Magnesium (Lonza/BioWhittaker cat #10-527F)/0.1% BSA (Sigma Aldrich cat #A7409-1L)/20 mM HEPES (Lonza/BioWhiftaker cat #17-737E) containing 100 μM 3-isobutyl-1-methylxanthin (IBMX; Sigma cat #15879). The final DMSO concentration is 1%.
After 48 hours, the growth media was removed from the assay plate wells, and the cells were treated with 20 μL of the serially diluted compound in assay buffer for 30 minutes at 37° C. in a humidified environment in 5% carbon dioxide. Following the 30 minute incubation, 10 μL of labeled d2 cAMP and 10 μL of anti-cAMP antibody (both diluted 1:20 in cell lysis buffer; as described in the manufacturer's assay protocol) were added to each well of the assay plate. The plates were then incubated at room temperature and after 60 minutes, changes in the HTRF signal were read with an Envision 2104 multi-label plate reader using excitation of 330 nm and emissions of 615 and 665 nm. Raw data were converted to nM cAMP by interpolation from a cAMP standard curve (as described in the manufacturer's assay protocol) and the percent effect was determined relative to a saturating concentration of the full agonist GLP-17-36 (1 μM) included on each plate. EC50 determinations were made from agonist dose-response curves analyzed with a curve fitting program using a 4-parameter logistic dose response equation.

human GLP-1R, sequence (P43220 24-463 G168S limits assumed): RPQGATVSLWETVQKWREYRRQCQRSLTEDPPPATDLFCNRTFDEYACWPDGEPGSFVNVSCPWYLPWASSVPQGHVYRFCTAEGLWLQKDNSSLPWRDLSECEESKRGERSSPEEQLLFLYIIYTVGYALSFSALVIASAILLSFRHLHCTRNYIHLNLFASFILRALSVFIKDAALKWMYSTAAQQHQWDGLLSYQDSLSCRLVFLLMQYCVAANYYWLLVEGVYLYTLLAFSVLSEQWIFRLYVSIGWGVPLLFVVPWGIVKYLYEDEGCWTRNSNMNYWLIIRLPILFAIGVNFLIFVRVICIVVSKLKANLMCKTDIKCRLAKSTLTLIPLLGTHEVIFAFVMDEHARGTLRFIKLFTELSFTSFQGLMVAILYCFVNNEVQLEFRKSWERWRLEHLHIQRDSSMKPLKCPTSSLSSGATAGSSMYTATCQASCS

| SMILES | pEC50 | Emax [%] |
| --- | --- | --- |
| O=C(O)c1ccc2nc(CN3CCC(c4cccc(OCc5ccc(Cl)cc5F)n4)CC3)n(C[C@H]3CCOC3)c2c1 [Example 10A-72, 2-[(4-{6-[(4-chloro-2-fluorobenzyl)oxy]pyridin-2-yl}piperidin-1-yl)methyl]-1-[(3R)-tetrahydrofuran-3-ylmethyl]-1H-benzimidazole-6-carboxylic acid] | 8.47 | 79 |
| CN1CCC1Cn1c(CN2CCC(c3cccc(OCc4ccc(Cl)cc4F)n3)CC2)nc2ccc(C(=O)O)cc21 (stereo not drawn) [Example 10A-79] | 7.48 | 80 |
| Cn1cnc(CCn2c(CN3CCC(c4cccc(OCc5ccc(Cl)cc5F)n4)CC3)nc3ccc(C(=O)O)cc32)c1 [Example 11A-01, 2-[(4-{6-[(4-chloro-2-fluorobenzyl)oxy]pyridin-2-yl}piperidin-1-yl)methyl]-1-[2-(1-methyl-1H-imidazol-4-yl)ethyl]-1H-benzimidazole-6-carboxylic acid] | < 5.00 | 85 |
| O=C(O)c1ccc2nc(CN3CCC(c4cccc(OCc5ccc(Cl)cc5F)n4)CC3)n(Cc3ccc(Cl)cn3)c2c1 [Example 11A-02, 2-[(4-{6-[(4-chloro-2-fluorobenzyl)oxy]pyridin-2-yl}piperidin-1-yl)methyl]-1-[(5-chloropyridin-2-yl)methyl]-1H-benzimidazole-6-carboxylic acid] | < 4.82 | 100 |
| CCN1CCC(Cn2c(CN3CCC(c4cccc(OCc5ccc(Cl)cc5F)n4)CC3)nc3ccc(C(=O)O)cc32)C1 (stereo not drawn) [Example 11A-03, 2-[(4-{6-[(4-chloro-2-fluorobenzyl)oxy]pyridin-2-yl}piperidin-1-yl)methyl]-1-[(1-ethylpyrrolidin-3-yl)methyl]-1H-benzimidazole-6-carboxylic acid] | < 4.80 | 100 |
| CN1CCCC(Cn2c(CN3CCC(c4cccc(OCc5ccc(Cl)cc5F)n4)CC3)nc3ccc(C(=O)O)cc32)C1 (stereo not drawn) [Example 11A-04, 2-[(4-{6-[(4-chloro-2-fluorobenzyl)oxy]pyridin-2-yl}piperidin-1-yl)methyl]-1-[(1-methylpiperidin-3-yl)methyl]-1H-benzimidazole-6-carboxylic acid] | < 4.72 | 100 |
| O=C(O)c1ccc2nc(CN3CCC(c4cccc(OCc5ccc(Cl)cc5F)n4)CC3)n(CCC3CCCCO3)c2c1 (stereo not drawn) [Example 11A-05, 2-[(4-{6-[(4-chloro-2-fluorobenzyl)oxy]pyridin-2-yl}piperidin-1-yl)methyl]-1-[2-(tetrahydro-2H-pyran-2-yl)ethyl]-1H-benzimidazole-6-carboxylic acid] | < 4.70 | – |
| CC(C)c1cc(Cn2c(CN3CCC(c4cccc(OCc5ccc(Cl)cc5F)n4)CC3)nc3ccc(C(=O)O)cc32)on1 [Example 11A-06, 2-[(4-{6-[(4-chloro-2-fluorobenzyl)oxy]pyridin-2-yl}piperidin-1-yl)methyl]-1-{[3-(propan-2-yl)-1,2-oxazol-5-yl]methyl}-1H-benzimidazole-6-carboxylic acid] | < 4.70 | – |
| CN1CCC(CCn2c(CN3CCC(c4cccc(OCc5ccc(Cl)cc5F)n4)CC3)nc3ccc(C(=O)O)cc32)CC1 [Example 11A-07, 2-[(4-{6-[(4-chloro-2-fluorobenzyl)oxy]pyridin-2-yl}piperidin-1-yl)methyl]-1-[2-(1-methylpiperidin-4-yl)ethyl]-1H-benzimidazole-6-carboxylic acid] | < 4.70 | – |
| CN1CCC(Cn2c(CN3CCC(c4cccc(OCc5ccc(Cl)cc5F)n4)CC3)nc3ccc(C(=O)O)cc32)CC1 [Example 11A-08, 2-[(4-{6-[(4-chloro-2-fluorobenzyl)oxy]pyridin-2-yl}piperidin-1-yl)methyl]-1-[(1-methylpiperidin-4-yl)methyl]-1H-benzimidazole-6-carboxylic acid] | < 4.70 | – |
| CN1CCCC1CCn1c(CN2CCC(c3cccc(OCc4ccc(Cl)cc4F)n3)CC2)nc2ccc(C(=O)O)cc21 (stereo not drawn) [Example 11A-09, 2-[(4-{6-[(4-chloro-2-fluorobenzyl)oxy]pyridin-2-yl}piperidin-1-yl)methyl]-1-[2-(1-methylpyrrolidin-2-yl)ethyl]-1H-benzimidazole-6-carboxylic acid] | < 4.70 | – |
| CN1CCCCC1Cn1c(CN2CCC(c3cccc(OCc4ccc(Cl)cc4F)n3)CC2)nc2ccc(C(=O)O)cc21 (stereo not drawn) [Example 11A-10, 2-[(4-{6-[(4-chloro-2-fluorobenzyl)oxy]pyridin-2-yl}piperidin-1-yl)methyl]-1-[(1-methylpiperidin-2-yl)methyl]-1H-benzimidazole-6-carboxylic acid] | < 4.70 | – |
| CN1CCOC(CCn2c(CN3CCC(c4cccc(OCc5ccc(Cl)cc5F)n4)CC3)nc3ccc(C(=O)O)cc32)C1 (stereo not drawn) [Example 11A-11, 2-[(4-{6-[(4-chloro-2-fluorobenzyl)oxy]pyridin-2-yl}piperidin-1-yl)methyl]-1[2-(4-methylmorpholin-2-yl)ethyl]-1H-benzimidazole-6-carboxylic acid] | < 4.70 | – |
| COCCN1CCC(Cn2c(CN3CCC(c4cccc(OCc5ccc(Cl)cc5F)n4)CC3)nc3ccc(C(=O)O)cc32)CC1 [Example 11A-12, 2-[(4-{6-[(4-chloro-2-fluorobenzyl)oxy]pyridin-2-yl}piperidin-1-yl)methyl]-1-{[1-(2-methoxyethyl)piperidin-4-yl]methyl}-1H-benzimidazole-6-carboxylic acid] | < 4.70 | – |
| COCCN1CCCC(Cn2c(CN3CCC(c4cccc(OCc5ccc(Cl)cc5F)n4)CC3)nc3ccc(C(=O)O)cc32)C1 (stereo not drawn) [Example 11A-13, 2-[(4-{6-[(4-chloro-2-fluorobenzyl)oxy]pyridin-2-yl}piperidin-1-yl)methyl]-1-{[1-(2-methoxyethyl)piperidin-3-yl]methyl}-1H-benzimidazole-6-carboxylic acid] | < 4.70 | – |
| Cn1cc(CCn2c(CN3CCC(c4cccc(OCc5ccc(Cl)cc5F)n4)CC3)nc3ccc(C(=O)O)cc32)cn1 [Example 11A-32, 2-[(4-{6-[(4-chloro-2-fluorobenzyl)oxy]pyridin-2-yl}piperidin-1-yl)methyl]-1-[2-(1-methyl-1H-pyrazol-4-yl)ethyl]-1H-benzimidazole-6-carboxylic acid] | 7.06 | 83 |
| Cc1cc(Cn2c(CN3CCC(c4cccc(OCc5ccc(Cl)cc5F)n4)CC3)nc3ccc(C(=O)O)cc32)no1 [Example 11A-35, 2-[(4-{6-[(4-chloro-2-fluorobenzyl)oxy]pyridin-2-yl}piperidin-1-yl)methyl]-1-[(5-methyl-1,2-oxazol-3-yl)methyl]-1H-benzimidazole-6-carboxylic acid] | 6.96 | 74 |
| Cn1cc(Cn2c(CN3CCC(c4cccc(OCc5ccc(Cl)cc5F)n4)CC3)nc3ccc(C(=O)O)cc32)nn1 [Example 11A-36, 2-[(4-{6-[(4-chloro-2-fluorobenzyl)oxy]pyridin-2-yl}piperidin-1-yl)methyl]-1-[(1-methyl-1H-1,2,3-triazol-4-yl)methyl]-1H-benzimidazole-6-carboxylic acid] | 6.96 | 79 |
| COCCCn1c(CN2CCC(c3cccc(OCc4ccc(Cl)cc4F)n3)CC2)nc2ccc(C(=O)O)cc21 [Example 11A-38, 2-[(4-{6-[(4-chloro-2-fluorobenzyl)oxy]pyridin-2-yl}piperidin-1-yl)methyl]-1-(3-methoxypropyl)-1H-benzimidazole-6-carboxylic acid] | 6.92 | 80 |
| CCn1ccnc1Cn1c(CN2CCC(c3cccc(OCc4ccc(Cl)cc4F)n3)CC2)nc2ccc(C(=O)O)cc21 [Example 11A-39, 2-[(4-{6-[(4-chloro-2-fluorobenzyl)oxy]pyridin-2-yl}piperidin-1-yl)methyl]-1-[(1-ethyl-1H-imidazol-2-yl)methyl]-1H-benzimidazole-6-carboxylic acid] | 6.89 | 80 |
| O=C(O)c1ccc2nc(CN3CCC(c4cccc(OCc5ccc(Cl)cc5F)n4)CC3)n(CC3CCCOC3)c2c1 (stereo not drawn) [Example 11A-40, 2-[(4-{6-[(4-chloro-2-fluorobenzyl)oxy]pyridin-2-yl}piperidin-1-yl)methyl]-1-(tetrahydro-2H-pyran-3-ylmethyl)-1H-benzimidazole-6-carboxylic acid] | 6.77 | 77 |
| O=C(O)c1ccc2nc(CN3CCC(c4cccc(OCc5ccc(Cl)cc5F)n4)CC3)n(CCc3c[nH]cn3)c2c1 [Example 11A-41, 2-[(4-{6-[(4-chloro-2-fluorobenzyl)oxy]pyridin-2-yl}piperidin-1-yl)methyl]-1-[2-(1H-imidazol-4-yl)ethyl]-1H-benzimidazole-6-carboxylic acid] | 6.72 | 74 |
| CN1CC(Cn2c(CN3CCC(c4cccc(OCc5ccc(Cl)cc5F)n4)CC3)nc3ccc(C(=O)O)cc32)CC1=O (stereo not drawn) [Example 11A-42, 2-[(4-{6-[(4-chloro-2-fluorobenzyl)oxy]pyridin-2-yl}piperidin-1-yl]methyl]-1-[(1-methyl-5-oxopyrrolidin-3-yl)methyl]-1H-benzimidazole-6-carboxyl ic acid] | 6.72 | – |
| Cn1cc(Cn2c(CN3CCC(c4cccc(OCc5ccc(Cl)cc5F)n4)CC3)nc3ccc(C(=O)O)cc32)cn1 [Example 11A-43, 2-[(4-{6-[(4-chloro-2-fluorobenzyl)oxy]pyridin-2-yl}piperidin-1-yl)methyl]-1-[(1-methyl-1H-pyrazol-4-yl)methyl]-1H-benzimidazole-6-carboxylic acid] | 6.72 | 80 |
| Cn1cc(CCn2c(CN3CCC(c4cccc(OCc5ccc(Cl)cc5F)n4)CC3)nc3ccc(C(=O)O)cc32)nn1 [Example 11A-44, 2-[(4-{6-[(4-chloro-2-fluorobenzyl)oxy]pyridin-2-yl}piperidin-1-yl)methyl]-1-[2-(1-methyl-1H-1,2,3-triazol-4-yl)ethyl]-1H-benzimidazole-6-carboxylic acid] | 6.68 | 77 |
| COC[C@H](C)n1c(CN2CCC(c3cccc(OCc4ccc(Cl)cc4F)n3)CC2)nc2ccc(C(=O)O)cc21 [Example 11A-45, 2-[(4-{6-[(4-chloro-2-fluorobenzyl)oxy]pyridin-2-yl}piperidin-1-yl)methyl]-1-[(2S)-1-methoxypropan-2-yl]-1H-benzimidazole-6-carboxylic acid] | 6.54 | 74 |
